Active and inactive are the calls of the source.
Tests used:
CCRF-CEM = assay: In vitro ability to inhibit the growth of CCRF-CEM human T-lymphoblastic leukemia; Compound was inactive at 100 uM and 1000 uM respectively.; format: functional, cell-based
Human alphaherpesvirus 2 = assay: In vitro antiviral activity against herpes simplex virus type 2 (MS); Compound was inactive at 100 uM and 1000 uM respectively.; format: functional, organism-based
Influenza A virus = assay: In vitro antiviral activity against influenza A virus (chile); Compound was inactive at 100 uM and 1000 uM respectively.; format: functional, organism-based
L1210 = assay: In vitro ability to inhibit the growth of L1210 murine lymphocytic leukemia; Compound was inactive at 100 uM and 1000 uM respectively.; format: functional, cell-based; conditions: Mus musculus
Human respirovirus 3 = assay: In vitro antiviral activity against parainfluenza virus type 3 (C243); Compound was inactive at 100 uM and 1000 uM respectively.; format: functional, organism-based
Human rhinovirus 1A = assay: In vitro antiviral activity against rhino virus type 1-A (2060); Compound was inactive at 100 uM and 1000 uM respectively.; format: functional, organism-based
Semliki Forest virus = assay: In vitro antiviral activity against semliki forest virus (original); Compound was inactive at 100 uM and 1000 uM respectively.; format: functional, organism-based
Visna-maedi virus = assay: In vitro antiviral activity against vinsa virus (1513); Compound was inactive at 100 uM and 1000 uM respectively.; format: functional, organism-based
Homo sapiens = species: Homo sapiens; assay: In vitro ability to inhibit the growth of WI-L2 human B-lymphoblastic leukemia; Compound was inactive at 100 uM and 1000 uM respectively.; format: functional
Human adenovirus 2 = assay: In vitro antiviral activity against adeno virus type 2; Compound was inactive at 100 uM and 1000 uM respectively.; format: functional, organism-based

Measured: Activity

COc1ccc2nnc([C@@H]3O[C@H](CO)[C@@H](O)[C@H]3O)n2n1
inactive: CCRF-CEM inactive at 100 uM and 1000 uM respectively | Human alphaherpesvirus 2 inactive at 100 uM and 1000 uM respectively | Influenza A virus inactive at 100 uM and 1000 uM respectively | L1210 inactive at 100 uM and 1000 uM respectively | Human respirovirus 3 inactive at 100 uM and 1000 uM respectively | Human rhinovirus 1A inactive at 100 uM and 1000 uM respectively | Semliki Forest virus inactive at 100 uM and 1000 uM respectively | Visna-maedi virus inactive at 100 uM and 1000 uM respectively | Homo sapiens inactive at 100 uM and 1000 uM respectively | Human adenovirus 2 inactive at 100 uM and 1000 uM respectively

Nc1cnn2c([C@@H]3O[C@H](CO)[C@@H](O)[C@H]3O)nnc2c1
inactive: CCRF-CEM inactive at 100 uM and 1000 uM respectively | Human alphaherpesvirus 2 inactive at 100 uM and 1000 uM respectively | Influenza A virus inactive at 100 uM and 1000 uM respectively | L1210 inactive at 100 uM and 1000 uM respectively | Human respirovirus 3 inactive at 100 uM and 1000 uM respectively | Human rhinovirus 1A inactive at 100 uM and 1000 uM respectively | Semliki Forest virus inactive at 100 uM and 1000 uM respectively | Visna-maedi virus inactive at 100 uM and 1000 uM respectively | Homo sapiens inactive at 100 uM and 1000 uM respectively | Human adenovirus 2 inactive at 100 uM and 1000 uM respectively

Nc1c(Cl)cnn2c([C@@H]3O[C@H](CO)[C@@H](O)[C@H]3O)nnc12
inactive: CCRF-CEM inactive at 100 uM and 1000 uM respectively | Human alphaherpesvirus 2 inactive at 100 uM and 1000 uM respectively | Influenza A virus inactive at 100 uM and 1000 uM respectively | L1210 inactive at 100 uM and 1000 uM respectively | Human respirovirus 3 inactive at 100 uM and 1000 uM respectively | Human rhinovirus 1A inactive at 100 uM and 1000 uM respectively | Semliki Forest virus inactive at 100 uM and 1000 uM respectively | Visna-maedi virus inactive at 100 uM and 1000 uM respectively | Homo sapiens inactive at 100 uM and 1000 uM respectively | Human adenovirus 2 inactive at 100 uM and 1000 uM respectively

Nc1cnn2c([C@@H]3O[C@H](CO)[C@@H](O)[C@H]3O)nnc2c1Cl
inactive: CCRF-CEM inactive at 100 uM and 1000 uM respectively | Human alphaherpesvirus 2 inactive at 100 uM and 1000 uM respectively | Influenza A virus inactive at 100 uM and 1000 uM respectively | L1210 inactive at 100 uM and 1000 uM respectively | Human respirovirus 3 inactive at 100 uM and 1000 uM respectively | Human rhinovirus 1A inactive at 100 uM and 1000 uM respectively | Semliki Forest virus inactive at 100 uM and 1000 uM respectively | Visna-maedi virus inactive at 100 uM and 1000 uM respectively | Homo sapiens inactive at 100 uM and 1000 uM respectively | Human adenovirus 2 inactive at 100 uM and 1000 uM respectively

O=c1ccc2nnc([C@@H]3O[C@H](CO)[C@@H](O)[C@H]3O)n2[nH]1
inactive: CCRF-CEM inactive at 100 uM and 1000 uM respectively | Human alphaherpesvirus 2 inactive at 100 uM and 1000 uM respectively | Influenza A virus inactive at 100 uM and 1000 uM respectively | L1210 inactive at 100 uM and 1000 uM respectively | Human respirovirus 3 inactive at 100 uM and 1000 uM respectively | Human rhinovirus 1A inactive at 100 uM and 1000 uM respectively | Semliki Forest virus inactive at 100 uM and 1000 uM respectively | Visna-maedi virus inactive at 100 uM and 1000 uM respectively | Homo sapiens inactive at 100 uM and 1000 uM respectively | Human adenovirus 2 inactive at 100 uM and 1000 uM respectively

Nc1ccnn2c([C@@H]3O[C@H](CO)[C@@H](O)[C@H]3O)nnc12
inactive: CCRF-CEM inactive at 100 uM and 1000 uM respectively | Human alphaherpesvirus 2 inactive at 100 uM and 1000 uM respectively | Influenza A virus inactive at 100 uM and 1000 uM respectively | L1210 inactive at 100 uM and 1000 uM respectively | Human respirovirus 3 inactive at 100 uM and 1000 uM respectively | Human rhinovirus 1A inactive at 100 uM and 1000 uM respectively | Semliki Forest virus inactive at 100 uM and 1000 uM respectively | Visna-maedi virus inactive at 100 uM and 1000 uM respectively | Homo sapiens inactive at 100 uM and 1000 uM respectively | Human adenovirus 2 inactive at 100 uM and 1000 uM respectively

Nc1ccc2nnc([C@@H]3O[C@H](CO)[C@@H](O)[C@H]3O)n2n1
inactive: CCRF-CEM inactive at 100 uM and 1000 uM respectively | Human alphaherpesvirus 2 inactive at 100 uM and 1000 uM respectively | Influenza A virus inactive at 100 uM and 1000 uM respectively | L1210 inactive at 100 uM and 1000 uM respectively | Human respirovirus 3 inactive at 100 uM and 1000 uM respectively | Human rhinovirus 1A inactive at 100 uM and 1000 uM respectively | Semliki Forest virus inactive at 100 uM and 1000 uM respectively | Visna-maedi virus inactive at 100 uM and 1000 uM respectively | Homo sapiens inactive at 100 uM and 1000 uM respectively | Human adenovirus 2 inactive at 100 uM and 1000 uM respectively

Reference: ChEMBL document CHEMBL1124526, “Synthesis and biological evaluation of certain 3-beta-D-ribofuranosyl-1,2,4-triazolo[4,3-b)pyridazines related to formycin prepared via ring closure of pyridazine precursors” (J Med Chem, 1989)
